Reference: patent publication US8115014B2, “Ethynylindole compounds” (ONO Pharmaceuticals, Co., Ltd., priority 2008, dated 2012)

Columns and labels:
human cysLT1 receptor = biological target: T1, human cysLT1 receptor (Homo sapiens, UniProt Q9Y271); test: Effects of compounds on LTD4-induced increase in intracellular calcium levels, CHO cells expressing the human cysLT1 receptor; type: cell-based; conditions: 100 nM LTD4, compound applied 30 minutes prior, read-out: IC50 (50% inhibitory concentration), LTD4-induced intracellular calcium influx
T1 construct: expressed in transfected cells; host or cells: Chinese hamster ovary (CHO) cells
T1 sequence (Q9Y271 1-337): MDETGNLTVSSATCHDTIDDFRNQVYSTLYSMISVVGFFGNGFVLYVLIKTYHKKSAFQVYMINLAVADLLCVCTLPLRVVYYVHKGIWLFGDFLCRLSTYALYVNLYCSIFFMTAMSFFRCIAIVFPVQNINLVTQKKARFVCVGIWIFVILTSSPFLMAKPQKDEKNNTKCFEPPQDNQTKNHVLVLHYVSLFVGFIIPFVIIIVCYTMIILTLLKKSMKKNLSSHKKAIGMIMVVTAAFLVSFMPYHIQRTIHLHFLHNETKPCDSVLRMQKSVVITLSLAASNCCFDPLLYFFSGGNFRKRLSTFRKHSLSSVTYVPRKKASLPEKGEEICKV
Protocol: (§1) Chinese hamster ovary (CHO) cells expressing the human cysLT1 receptor were seeded at a density of 0.4×10^5 cells/well into a 96-well plate and cultured in an F-12 medium at 37° C. in the presence of 5% CO2 for 24 hours. The cells were incubated in the culture medium containing 7.5 μM Fura2-AM, 20 mM 2-[4-(2-hydroxyethyl)-1-piperazinyl]ethanesulfonic acid (HEPES) and 2.5 mM probenecid, at 37° C. for about 60 minutes. The Fura2-AM-loaded cells were washed once with assay buffer (Hank's buffer containing 20 mM HEPES), and the LTD4-induced intracellular calcium influx was measured using a FDSS2000 (manufactured by Hamamatsu Photonics K.K.). The compounds of the present invention were applied 30 minutes prior to LTD4 stimulation, and time-course changes of the response provoked by 100 nM of LTD4 was measured over 150 seconds.

human cysLT2 receptor = biological target: T2, human cysLT2 receptor (Homo sapiens, UniProt Q9NS75); test: Effects of compounds on LTD4-induced increases in intracellular calcium levels, HEK293 cells expressing the human cysLT2 receptor; type: cell-based; conditions: 100 nM LTD4, compound applied 30 minutes prior, read-out: IC50 (50% inhibitory concentration), LTD4-induced intracellular calcium influx
T2 construct: expressed in transfected cells; host or cells: HEK293 cells
T2 sequence (Q9NS75 1-346): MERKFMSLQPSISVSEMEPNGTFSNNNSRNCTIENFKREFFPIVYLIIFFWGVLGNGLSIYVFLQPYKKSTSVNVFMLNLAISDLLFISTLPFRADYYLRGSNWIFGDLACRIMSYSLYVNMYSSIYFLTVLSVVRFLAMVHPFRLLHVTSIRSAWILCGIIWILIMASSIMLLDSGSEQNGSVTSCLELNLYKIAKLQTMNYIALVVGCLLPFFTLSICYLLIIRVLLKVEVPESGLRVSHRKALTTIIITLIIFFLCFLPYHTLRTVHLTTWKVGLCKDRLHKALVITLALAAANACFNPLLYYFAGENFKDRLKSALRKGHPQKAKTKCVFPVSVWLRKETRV
Protocol: as §1, with “The” for “Chinese hamster ovary (CHO) cells expressing the human cysLT1 receptor were seeded at a density of 0.4×10^5 cells/well into a 96-well plate and cultured in an F-12 medium at 37° C. in the presence of 5% CO2 for 24 hours. The”

Row | SMILES | IC50 (human cysLT1 receptor) [nM] | IC50 (human cysLT2 receptor) [nM]
1 | Cc1c(CCCC(=O)O)c2cccc(C#Cc3ccc(OCCCCc4c(F)c(F)c(F)c(F)c4F)cc3)c2n1CCCC(=O)O [Example 9, 4,4′-[2-methyl-7-({4-[4-(pentafluorophenyl)butoxy]phenyl}ethynyl)-1H-indole-1,3-diyl]dibutanoic Acid] | 1.1 | 2.8
2 | Cc1c(CCCC(=O)O)c2cccc(C#Cc3ccc(OCCCCc4cc(F)c(F)c(F)c4F)cc3)c2n1CC(=O)O [Example 11, 4-[1-(carboxymethyl)-2-methyl-7-({4-[4-(2,3,4,5-tetrafluorophenyl)butoxy]phenyl}ethynyl)-1H-indol-3-yl]butanoic Acid] | 0.21 | 0.77
3 | Cc1c(Cl)cccc1CCCCOc1ccc(C#Cc2cccc3c(CC4(CC(=O)O)CC4)c(C)n(CC(=O)O)c23)cc1 [Example 21 (1), (1-{[1-(carboxymethyl)-7-({4-[4-(3-chloro-2-methylphenyl)butoxy]phenyl}ethynyl)-2-methyl-1H-indol-3-yl]methyl}cyclopropyl)acetic Acid] | 0.16 | 2.1
4 | Cc1c(F)cccc1CCCCOc1ccc(C#Cc2cccc3c(CC4(CC(=O)O)CC4)c(C)n(CC(=O)O)c23)cc1 [Example 21 (2), [3-{[1-(carboxymethyl)cyclopropyl]methyl}-7-({4-[4-(3-fluoro-2-methylphenyl)butoxy]phenyl}ethynyl)-2-methyl-1H-indol-1-yl]acetic Acid] | 0.24 | 2.9
